Reference: US20130330358A1, “CRYSTAL STRUCTURE AND PEPTIDE INHIBITORS OF HAUSP DEUBIQUITINASE” (priority 2011, published 2013)

Legend:
[1] = target: T1, HAUSP TRAF domain HAUSP^62-205 (Homo sapiens, UniProt Q93009); assay: biochemical; assay type: binding; conditions: ITC, 20° C.; read-out: Kd
T1 construct: HAUSP^62-205, and HAUSP^62-560 were fused to a hexahistidine-tag2 and expressed in E. coli BL21 (DE3) RIPL cells; hexahistidine (cleaved yes); made in house; host or cells: E. coli BL21 (DE3) RIPL
Method: FIG. 5. Typical isothermal titration calorimetric measurements of the interactions between the HAUSP TRAF domain and the vIRF4 protein derivatives or other peptides. Purified proteins and synthesized peptides were reconstituted in 150 mM NaCl and 10 mM HEPES (pH 7.0). The calorimetric assays were performed using a VPITC system. All experiments were carried out with a stirring speed of 300 rpm at 20° C., and the thermal power was recorded every 10 s. Data were analyzed using the ORIGIN software package (version 7.0). […] Each titration against the HAUSP TRAF domain is indicated in each panel.
Purified proteins and synthesized peptides (Peptron Inc., Deajeon, Korea) were reconstituted in 150 mM NaCl and 10 mM HEPES (pH 7.0). The calorimetric assays were performed using a VP-ITC system (MicroCal Inc., Northampton, Mass.). Samples were degassed by vacuum aspiration for 15 min prior to loading. All experiments were carried out with a stirring speed of 300 rpm at 20° C., and the thermal power was recorded every 10 s. Data were analyzed using the ORIGIN software package (version 7.0) supplied with the instrument. […]

[2] = tested on: MCF7 (MDMX amplification); assay: WST-1 cell growth assay, MCF7; assay type: cell-based, human; conditions: MCF7, 100 μM, compared with LnCap cells
[3] = target: T1, HAUSP TRAF domain HAUSP^62-205; assay: Size exclusion chromatography, complex formation in 5-fold excess of MDM2^137-152; assay type: binding; conditions: in the presence of a 5-fold molar excess of MDM2 peptide
[4] = tested on: SJSA-1 (MDM2 amplification); assay: WST-1 cell growth assay, SJSA-1; assay type: cell-based, human; conditions: SJSA-1, 100 μM, compared with LnCap cells
USP8 = target: T2, USP8 (Homo sapiens, UniProt P40818); assay type: biochemical; conditions: 0.25 μM purified USP8 pre-mixed with peptide 5 min
T2 sequence (P40818 1-1118): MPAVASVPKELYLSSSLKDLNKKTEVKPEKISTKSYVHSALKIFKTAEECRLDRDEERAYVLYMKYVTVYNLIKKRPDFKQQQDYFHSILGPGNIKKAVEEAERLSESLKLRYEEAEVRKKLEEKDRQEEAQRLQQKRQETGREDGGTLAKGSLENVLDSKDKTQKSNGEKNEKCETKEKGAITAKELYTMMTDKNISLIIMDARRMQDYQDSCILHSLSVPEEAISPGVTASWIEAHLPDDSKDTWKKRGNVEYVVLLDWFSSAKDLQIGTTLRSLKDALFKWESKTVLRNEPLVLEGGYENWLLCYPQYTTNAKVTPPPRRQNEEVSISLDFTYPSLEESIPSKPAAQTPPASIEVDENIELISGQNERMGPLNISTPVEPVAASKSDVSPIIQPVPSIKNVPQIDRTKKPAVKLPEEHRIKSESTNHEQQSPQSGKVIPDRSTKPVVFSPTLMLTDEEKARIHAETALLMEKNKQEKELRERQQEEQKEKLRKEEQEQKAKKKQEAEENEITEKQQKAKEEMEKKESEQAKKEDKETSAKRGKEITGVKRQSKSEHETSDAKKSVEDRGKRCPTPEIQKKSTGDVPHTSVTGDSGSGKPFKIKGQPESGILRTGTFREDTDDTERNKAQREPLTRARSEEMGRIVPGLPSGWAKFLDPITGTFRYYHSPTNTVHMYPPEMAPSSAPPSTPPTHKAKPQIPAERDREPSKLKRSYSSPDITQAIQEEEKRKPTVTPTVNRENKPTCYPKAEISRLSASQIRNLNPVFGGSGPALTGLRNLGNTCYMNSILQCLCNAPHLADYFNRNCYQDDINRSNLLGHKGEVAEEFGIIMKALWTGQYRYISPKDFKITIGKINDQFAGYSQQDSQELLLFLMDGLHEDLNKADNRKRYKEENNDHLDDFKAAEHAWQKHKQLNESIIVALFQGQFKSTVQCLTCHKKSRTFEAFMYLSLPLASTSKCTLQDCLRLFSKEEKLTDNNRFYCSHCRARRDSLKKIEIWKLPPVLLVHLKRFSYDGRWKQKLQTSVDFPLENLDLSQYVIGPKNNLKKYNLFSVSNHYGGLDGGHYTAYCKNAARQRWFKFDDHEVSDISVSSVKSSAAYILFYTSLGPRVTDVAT

HAUSP [5] = target: T3, HAUSP (Homo sapiens, UniProt Q93009); assay: In vitro DUB assay, purified HAUSP with ubiquitinated MDM2 as substrate; conditions: HAUSP preincubated with increasing amounts of peptide (FIG. 2f)
[6] = tested on: p53 and its transcriptional targets p21 and MDM2; assay: Immunoblot of p53, MDM2, p21 and HAUSP levels in PEL cells; assay type: cell-based, human; conditions: FIG. 3d
Source text: The results were quantified as mean±s.d. of the combined results from three independent experiments; Data are mean±s. e. m.; n=200-300 cells from three independent experiments. *P<0.01 and **P<0.001. A Beckman Coulter Z2 Particle Count and size analyzer (BC Z2 CS analyzer) and trypan blue staining were used to determine cell death and for cell growth analysis. […] BrdU incorporation during the S phase is quantified as percentage of stained cells. […] Data are culled from 3 independent experiments. […] Apoptosis in VG1 cells was assessed at 48 h after treatment with 10 μM Nutlin-3a or 100 μM of each peptide by Annexin V/PI staining and measured by flow cytometry analysis. […] Numbers indicate the percentage of cells in each quadrant. […] VG1 and BJAB cells were treated with the same dose as used in (b) and (c) for 6 h and aliquots of cell lysates containing […] of protein were analyzed by IB with the indicated antibody. […] Tumors were measured by in vivo bioluminescence imaging. […] The results were quantified as mean±s.d. of the combined results from three independent experiments; Data are mean±s. e. m.; n=200-300 cells from three independent experiments. *P<0.05 and **P<0.01. […]

HAUSP [7] = target: T3, HAUSP; conditions: time course, K48-Ub3-7 chains, 37° C. (FIG. 2e)

T3 sequence (Q93009 whole entry): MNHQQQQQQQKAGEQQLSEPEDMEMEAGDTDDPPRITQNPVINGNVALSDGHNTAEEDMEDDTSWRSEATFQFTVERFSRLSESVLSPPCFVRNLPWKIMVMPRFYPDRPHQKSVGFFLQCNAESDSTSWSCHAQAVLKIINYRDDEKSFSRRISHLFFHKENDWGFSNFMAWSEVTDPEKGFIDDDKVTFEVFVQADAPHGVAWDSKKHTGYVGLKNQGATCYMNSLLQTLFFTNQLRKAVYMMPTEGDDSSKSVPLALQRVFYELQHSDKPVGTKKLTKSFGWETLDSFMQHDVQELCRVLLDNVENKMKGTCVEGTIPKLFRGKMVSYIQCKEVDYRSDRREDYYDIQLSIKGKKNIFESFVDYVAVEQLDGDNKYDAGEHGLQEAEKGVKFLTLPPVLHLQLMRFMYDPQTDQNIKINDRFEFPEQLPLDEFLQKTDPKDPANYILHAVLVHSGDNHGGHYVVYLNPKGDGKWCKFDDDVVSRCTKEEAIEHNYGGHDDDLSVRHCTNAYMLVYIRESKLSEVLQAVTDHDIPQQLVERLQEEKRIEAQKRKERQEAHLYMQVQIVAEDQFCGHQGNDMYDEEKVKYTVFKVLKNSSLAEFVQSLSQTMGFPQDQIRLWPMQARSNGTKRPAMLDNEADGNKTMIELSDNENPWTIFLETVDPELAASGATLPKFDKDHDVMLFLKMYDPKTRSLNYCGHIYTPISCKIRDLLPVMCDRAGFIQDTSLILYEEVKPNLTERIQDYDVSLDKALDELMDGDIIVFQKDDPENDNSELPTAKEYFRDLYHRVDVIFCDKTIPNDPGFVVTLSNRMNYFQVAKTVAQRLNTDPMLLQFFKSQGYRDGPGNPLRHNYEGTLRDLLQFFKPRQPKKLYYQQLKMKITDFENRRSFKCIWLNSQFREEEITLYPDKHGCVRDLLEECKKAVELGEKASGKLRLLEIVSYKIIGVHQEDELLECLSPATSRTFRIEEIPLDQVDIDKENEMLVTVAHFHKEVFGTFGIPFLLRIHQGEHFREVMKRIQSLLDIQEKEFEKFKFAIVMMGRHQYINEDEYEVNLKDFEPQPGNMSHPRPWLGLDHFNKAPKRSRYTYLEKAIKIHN
T1 sequence (Q93009 62-205): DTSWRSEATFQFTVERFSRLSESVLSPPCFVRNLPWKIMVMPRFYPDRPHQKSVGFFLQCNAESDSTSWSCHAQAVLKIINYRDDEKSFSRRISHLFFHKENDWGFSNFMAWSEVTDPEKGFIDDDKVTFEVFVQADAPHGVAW

Compound C[C@H](NC(=O)[C@@H]1CCCN1C(=O)CNC(=O)[C@H](CCC(N)=O)NC(=O)[C@@H](N)CCC(=O)O)C(=O)N[C@@H](CC(=O)O)C(=O)N[C@@H](CC(=O)O)C(=O)N1CCC[C@H]1C(=O)NCC(=O)N[C@@H](CCC(=O)O)C(=O)NCC(=O)N1CCC[C@H]1C(=O)N[C@@H](CO)C(=O)N[C@H](C(=O)NCC(=O)O)[C@@H](C)O [EBNA1^435-449, reference compound] has a Kd [1] of 480 ± 40 nM.
With CC[C@H](C)[C@H](NC(=O)[C@H](Cc1c[nH]c2ccccc12)NC(=O)[C@@H](NC(=O)[C@@H](N)CO)C(C)C)C(=O)N1CCC[C@H]1C(=O)N[C@H](C(=O)N[C@@H](CC(N)=O)C(=O)N[C@@H](CCC(=O)O)C(=O)NCC(=O)N[C@@H](C)C(=O)N[C@@H](CO)C(=O)N[C@H](C(=O)N[C@@H](CO)C(=O)NCC(=O)N[C@@H](CCSC)C(=O)O)[C@@H](C)O)C(C)C [vIRF4^202-216] the cell growth inhibition [2] was “did not show as robust a susceptibility”, the “complex formation with the HAUSP TRAF domain” value [3] was “formed a stable complex” and the cell growth inhibition [4] was “did not show as robust a susceptibility”. For the same compound, the “USP8 DUB activity” value (USP8) was “neither vif1 peptide nor vif2 peptide was capable of inhibiting USP8 DUB activity”, the “HAUSP DUB activity against ubiquitinated MDM2” value (HAUSP [5]) was “efficiently blocked HAUSP DUB activity” and the HAUSP levels [6] was “Neither vif1 nor vif2 peptide treatment altered HAUSP levels”. The “HAUSP DUB activity, comparative kinetic analysis” value (HAUSP [7]) was “weakly attenuated HAUSP DUB activity”.
For TRQVTQASSFTWRVPG [vif2], the cell growth inhibition [2] was “did not show as robust a susceptibility”, the cell growth inhibition [4] was “did not show as robust a susceptibility” and the “USP8 DUB activity” value (USP8) was “neither vif1 peptide nor vif2 peptide was capable of inhibiting USP8 DUB activity”. For the same compound, the “HAUSP DUB activity against ubiquitinated MDM2” value (HAUSP [5]) was “efficiently blocked HAUSP enzymatic activity”, the HAUSP levels [6] was “Neither vif1 nor vif2 peptide treatment altered HAUSP levels” and the “HAUSP DUB activity, comparative kinetic analysis” value (HAUSP [7]) was “completely suppressed HAUSP DUB activity”.
